Measured values: US20130288978A1, “DERMATOPONTIN-ACTIVATING PEPTIDES AND COSMETIC COMPOSITIONS INCLUDING SAME” (ISP INVESTMENTS INC., priority 2010, published 2013)
“Also recorded” adds a separate entry of the source. Ends that are not written are not given here.

What was measured:
dermatopontin [1] = assay: Dermatopontin immunofluorescence labeling in human skin kept in culture ex vivo; type: cell-based; settings: 10^−6 M solution applied topically, 24 or 48 hours
Experimental: (§1) The objective of this study is to determine the influence of the SEQ ID No. 5 peptide and of the SEQ ID No. 9 peptide on the expression of dermatopontin in fibroblasts. For this, specific immunofluorescence labelings were performed on normal human fibroblast cultures and on skin kept in culture ex vivo.
The human skin samples are placed in culture at the air/liquid interface. A 10^−6M solution of peptide SEQ ID No. 5 or of peptide SEQ ID No. 9 is applied topically, then the samples are incubated for 24 hours or 48 hours. These skin samples are then fixed with formaldehyde then embedded in paraffin or fixed with OCT, by freezing at −20° C. Sections of 3 to 4 μm are then produced (6 μm for the cold sections). The immunolabeling of the samples embedded in paraffin is performed after unmasking specific sites. The immunolabeling of samples embedded in OCT is performed after fixation at 37° C. and with cold acetone.
(§2) The fixed cells or the sections are incubated in the presence of a specific rabbit dermatopontin polyclonal antibody (Proteintech group, Ref: 10537-1-AP), then a secondary antibody, coupled to a fluorescent marker. After mounting in an ad hoc medium, the cells are then examined with an Epi-fluorescence microscope (Nikon Eclipse E600 microscope).

dermatopontin [2] = assay: Dermatopontin immunofluorescence labeling in normal human fibroblast cultures; type: cell-based; settings: normal human fibroblasts, peptide 10^−6 M once daily, 24 or 48 hours, vs control conditions
Experimental: as §1
Normal human fibroblasts are cultivated for 24 or 48 hours and treated once daily with a 10^−6M solution of peptide SEQ ID No. 5 or of peptide SEQ ID No. 9. The cells are then washed and fixed with 3.7% formaldehyde for 10 minutes at ambient temperature.
as §2

dermal fibroblasts = assay: Ibidi in vitro healing model (gap filling), fibroblasts; type: cell-based, human
Text: (§3) The objective of this study is to determine the regenerating effect of the SEQ ID No. 5 peptide on dermal fibroblasts and normal human keratinocytes (NHEK). To do this, the Ibidi in vitro healing model (Integrated Bio Diagnostics, Munich, Germany) was used.
(§4) This test consists of maintaining a cell-free area at the middle of a cell layer and of evaluating the time taken by the cells arranged on either side of the “scar” to migrate or proliferate and fill the gap. The self-adhesive silicone culture inserts are placed at the base of a well of a culture plate. These inserts have the special feature of being comprised of two distinct chambers separated by an impermeable membrane with a thickness of 500 μm. Each of the two chambers is seeded with cells of the same cell type and cultivated until confluency. The insert is then removed with sterile tweezers, creating an acellular area 400 μm wide between the two cell layers. The cells are then treated with a 10^−6 M or a 3×10^−6M solution of SEQ ID No. 5 peptide added to the culture medium, with renewal of the peptide every 24 hours. Phase-contrast microscopy observations (Olympus CK40 microscope X5 connected to an Olympus E-510 camera) were performed at different times (0, 6, 24, 30 and 48 hours) until the proliferation and migration process results in the filling of the gap.

collagen III [3] = assay: Collagen III immunofluorescence labeling in ex vivo human skin sections; type: cell-based; settings: 10^−6 M applied topically, 24 or 48 hours, vs control conditions
Experimental: (§5) The human skin samples are placed in culture at the air/liquid interface. A 10^−6M solution of SEQ ID No. 5 peptide or SEQ ID No. 9 peptide is applied topically, then the samples are incubated for 24 hours or 48 hours. These skin samples are then fixed with formaldehyde, then embedded in paraffin or fixed with OCT by freezing at −20° C. Sections of 3 to 4 μm are then produced (6 μm for cold sections). The immunolabeling of samples embedded in paraffin is performed after unmasking specific sites. The immunolabeling of the samples embedded in OCT is performed after fixation at 37° C. and with cold acetone.
(§6) The fixed cells or sections are incubated in the presence of a specific rabbit collagen I polyclonal antibody (Rockland, Ref: 600-401-103) or a specific rabbit collagen III polyclonal antibody (Rockland, Ref: 600-401-105), then a secondary antibody coupled to a fluorescent marker. After mounting in an ad hoc medium, the cells are then examined with the Epi-fluorescence microscope (Nikon Eclipse E600 microscope).

NHEK = assay: Ultrastructure (transmission electron microscopy) of keratinocytes in culture; type: cell-based, human; settings: 10^−6 M, 48 hours, vs untreated control
Experimental: (§7) The objective of this study is to observe the subcellular structures of keratinocytes and fibroblasts treated by the SEQ ID No. 5 peptide at 10^−6 M.
(§8) NHEK or fibroblasts are cultivated in a dish or in a Transwell system, or skins cultivated ex vivo are treated with a 10^−6 M solution of SEQ ID No. 5 peptide for 48 hours (the medium is changed every 24 hours). The skin cells or samples are washed with PBS, then are fixed by Karnosky hypertonic fixation (4% paraformaldehyde, 5% glutaraldehyde in a 0.08M phosphate buffer), 1 hour at ambient temperature, then 24 hours at 4° C. The cells are detached from the substrate by scraping, centrifuged for 5 minutes at 1000 rpm at 4° C. The supernatant is removed and a 0.1 M sodium cacodylate buffer is deposited on the pellet. The cells are mixed with 2% agar then post-fixed by osmium tetroxide for 1 hour. The specimens are then dehydrated by successive passages in an alcohol series (50 to 100%). The skin cells or samples are then coated with a resin. The polymerization is performed for around 12 hours at 60° C. Semi-fine sections of 0.5 μm are performed with the ultra-microtome. The sections are deposited on a subbed slide under heat then stained with toluidine blue. The slides are then dehydrated again and mounted in a suitable medium. […]

fibroblasts = assay: Ultrastructure (transmission electron microscopy) of fibroblasts in culture; type: cell-based; settings: 10^−6 M, 48 hours
Experimental: as §7, §8

fibronectin [4] = assay: Fibronectin immunofluorescence labeling in ex vivo human skin cultures; type: cell-based; settings: 10^−6 M applied topically, 24 or 48 hours
Experimental: (§9) The objective of this study is to determine the influence of the SEQ ID No. 5 peptide on the expression of fibronectin, a protein of the extracellular matrix synthesized by the fibroblasts. For this, specific immunofluorescence labelings were performed on fibroblast cultures and on ex vivo skin cultures.
The human skin samples are placed in culture at the air/liquid interface. A 10^−6 M solution SEQ ID No. 5 peptide or SEQ ID No. 9 peptide is to be applied topically, then the samples are incubated for 24 or 48 hours. These skin samples are then fixed with formaldehyde, then embedded in paraffin or fixed with OCT by freezing at −20° C. Sections of 3 to 4 μm are then produced (6 μm for cold sections). The immunolabeling of the samples embedded in paraffin is performed after unmasking specific sites. The immunolabeling of the samples embedded in OCT is performed after fixation at 37° C. and with cold acetone.
(§10) The fixed cells or the sections are incubated in the presence of a specific rabbit fibronectin polyclonal antibody (Sigma, Ref: F-3648), then a secondary antibody, coupled with a fluorescent marker. The cells are then examined with the Epi-fluorescence microscope (Nikon Eclipse E600 microscope).

collagen I [5] = assay: Collagen I immunofluorescence labeling in normal human fibroblast cultures; type: cell-based; settings: 10^−6 M once per day, 24 or 48 hours, vs control conditions
Experimental: (§11) The objective of this study is to determine the influence of the SEQ ID No. 5 peptide on the expression of molecules of the dermal extracellular matrix. For this, the expression of collagens I and III in human fibroblasts obtained from the dermis was studied.
(§12) Normal human fibroblasts are cultivated for 24 or 48 hours and treated once per day with a 10^−6M solution of SEQ ID No. 5 peptide or SEQ ID No. 9 peptide. The cells are then washed and fixed with formaldehyde at 3.7% for 10 minutes at ambient temperature.
as §6

[6] = tested on: elastic fibers present in the dermis; assay: Elastic fiber staining (Elastika van Gieson) of ex vivo human skin irradiated by UVA; type: cell-based; settings: 10^−6 M topically 48 hours before UVA 5 J/cm^2, vs untreated irradiated controls
Experimental: The objective of this study is to determine the influence of the SEQ ID No. 5 peptide on the elastic fibers present in the dermis. To do this, specific staining of the elastic fibers was performed on skin samples cultivated ex vivo.
Human skin samples are placed in culture at the air/liquid interface. A 10^−6 M solution of SEQ ID No. 5 peptide is applied topically, then the samples are incubated for 48 hours before being irradiated by UVA at 5 J/cm^2. Untreated irradiated controls are produced in parallel.
These skin samples are then fixed with formaldehyde, then embedded in paraffin. Sections of 4 μm are then produced. These skin sections are successively removed from the paraffin, then rehydrated in different xylene and alcohol baths. the elastin fibers are stained using an Elastika van Gieson staining kit (VWR, Ref: 1.15974). The stained skin sections are dehydrated then mounted in the Eukitt mounting medium and observed under a microscope.

collagen III [7] = assay: Collagen III immunofluorescence labeling in normal human fibroblast cultures; type: cell-based; settings: 10^−6 M once per day, 24 or 48 hours, vs control conditions
Experimental: as §11, §12, §6

skins cultivated ex vivo = assay: Ultrastructure (transmission electron microscopy) of skins cultivated ex vivo; type: cell-based; settings: ex vivo skin cultures, 10^−6 M, 48 hours
Experimental: as §7, §8

fibronectin [8] = assay: Fibronectin immunofluorescence labeling in human dermal fibroblast cultures; type: cell-based; settings: human dermal fibroblasts, 10^−6 M once daily, vs control cells
Experimental: as §9
Human dermal fibroblasts in culture are treated once daily with a 10^−6 solution M of SEQ ID No. 5 peptide (the medium containing the active agent is changed every 24 hours). The cells are then washed and fixed with 3.7% formaldehyde for 10 minutes at ambient temperature.
as §10

[9] = tested on: normal human keratinocytes (NHEK); assay: Ibidi in vitro healing model (gap filling), keratinocytes; type: cell-based
Text: as §3, §4

collagen I [10] = assay: Collagen I immunofluorescence labeling in ex vivo human skin sections; type: cell-based; settings: 10^−6 M applied topically, 24 or 48 hours, vs control conditions
Experimental: as §5, §6

Substance: Asp-Arg-Glu-Trp-Gln-Phe-Tyr-Cys-NH2 (DREWQFYC-NH2) [SEQ ID No. 9]
- expression of dermatopontin (immunofluorescence) (dermatopontin [1]): more intense fluorescence at the dermis
- expression of dermatopontin (immunofluorescence) (dermatopontin [2]): more intense fluorescence; also recorded: very substantially stimulate the expression of dermatopontin

Substance: Arg-Glu-Trp-Gln-Phe-Tyr-Cys(Cys)-(NH2) [SEQ ID No. 5]
- gap filling / proliferation and migration by comparison with control conditions (dermal fibroblasts; fibroblasts cultivated in the presence of the peptide): filled the gap faster; also recorded: stimulates the proliferation and migration
- dose dependence of gap filling (dermal fibroblasts; fibroblasts, 3×10^−6 M compared with 10^−6 M): the gap fills faster
- time to total filling of the gap (dermal fibroblasts; human fibroblasts, 10^−6 M, 400 μm gap, control gap not yet filled at the same time): 48 h
- expression of collagen III (immunofluorescence) (collagen III [3]): more intense fluorescence
- intercellular contacts between keratinocytes (ultrastructure) (NHEK; cultures in a TRANSWELL system): more cohesive
- organelles / mitochondria in keratinocytes (ultrastructure) (NHEK; keratinocytes in culture): enrichment in organelles, and in particular mitochondria; also recorded: increase in the density of mitochondria
- caveolar bodies, rough endoplasmic reticulum and Golgi apparatus (ultrastructure) (fibroblasts; vs control cells): substantially more developed
- secretion / synthesis of components of the extracellular matrix (ultrastructure) (fibroblasts; vs untreated control cells): more intense secretion of components of the extracellular matrix; also recorded: increase in the synthesis of components of the extracellular matrix
- densification of the area supporting the dermoepidermal junction (fibronectin immunofluorescence) (fibronectin [4]): stimulates the densification of the area supporting the dermoepidermal junction
- expression of dermatopontin (immunofluorescence) (dermatopontin [1]): more intense fluorescence at the dermis
- expression of collagen I (immunofluorescence) (collagen I [5]): more intense fluorescence; also recorded: increases the expression of collagen I
- expression of dermatopontin (immunofluorescence) (dermatopontin [2]): more intense fluorescence; also recorded: very substantially stimulate the expression of dermatopontin
- degradation of the elastic fibers after UV irradiation [6]: less degradation of the elastic fibers; also recorded: preserves the elastic fibers
- organization of the elastic fibers after UV irradiation [6]: better preservation of the organization of the elastic fibers
- expression of collagen III (immunofluorescence) (collagen III [7]): more intense fluorescence; also recorded: increases the expression
- cellular contacts between the cells of the basal layer (ultrastructure) (skins cultivated ex vivo): narrower cellular contacts between the cells of the basal layer; also recorded: increases the intercellular contacts of the basal keratinocytes
- expression of fibronectin (immunofluorescence) (fibronectin [8]): more intense cytoplasmic fluorescence; also recorded: very substantially stimulates the expression of fibronectin
- gap filling / proliferation and migration by comparison with control conditions ([9]; NHEK cultivated in the presence of the peptide): filled the gap faster; also recorded: stimulates the proliferation and migration
- time to total filling of the gap ([9]; human keratinocytes, 10^−6 M, 400 μm gap, control gap not yet filled at the same time): 30 h
- dose dependence of gap filling ([9]; keratinocytes, 3×10^−6 M compared with 10^−6 M): the gap fills faster
- expression of collagen I (immunofluorescence) (collagen I [10]): more intense fluorescence
